Test results taken from US20020137929A1, “1 - (3-heterocyclylphenyl) isothiourea, -isourea, -guanidine and -amidine herbicidal agents” (Intellectual Property Department, BASF Aktiengesellschaft, priority 1998, published 2002).

Legend:
[1] = system: SAGPY (Arrowhead (Pygmaea)); assay: Preemergence weed control under flooded paddy conditions; type: in vivo, Sagittaria pygmaea; settings: rated 3-4 weeks after treatment
Procedure, shortened: (§1)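 First, seeds or propagules go into the top 0.5 cm of silt loam; next, water is held 1.5 to 3 cm over the soil; then compound (50/50 acetone/water) is pipetted into it at about 0.0313 to 0.500 kg/ha; finally plants are rated visually 0-9 after three to four weeks.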

[2] = system: CHEAL (Lambsquarters, Common); assay: Postemergence herbicidal evaluation; type: in vivo, Chenopodium album
Procedure, shortened: (§2)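 Scores (0–9) reflect plant stand, vigor, malformation, size, chlorosis and general appearance relative to control, read 4 to 5 weeks after treatment and averaged where tests were repeated. Application: about 0.0156–0.500 kg/ha sprayed at 40 psi onto two-week seedlings.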

[3] = system: CHEAL (Lambsquarters, Common); assay: Preemergence herbicidal evaluation; type: in vivo, Chenopodium album; settings: rated 4-5 weeks after treatment
Procedure, shortened: (§3)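 In this greenhouse assay, monocot and dicot seeds are planted in soil and treated prior to emergence with an aqueous acetone spray (about 0.0156-0.500 kg/ha). Plants are assessed visually against control on a 0-9 scale after 4-5 weeks.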

CASOB (Sicklepod) [4] = assay: Preemergence herbicidal evaluation; type: in vivo, Cassia obtusifolia; settings: rated 4-5 weeks after treatment
Procedure, shortened: as §3

[5] = system: IPOHE (Morningglory, Ivyleaf); assay: Postemergence herbicidal evaluation; type: in vivo, Ipomoea hederacea
Procedure, shortened: as §2

MOOVA (Monochoria) = assay: Preemergence weed control under flooded paddy conditions; type: in vivo, Monochoria vaginalis; settings: rated 3-4 weeks after treatment
Procedure, shortened: as §1

[6] = system: GLXMAW (Soybean, Williams); assay: Postemergence herbicidal evaluation; type: in vivo, Glycine max, (L.) Merr. cv Williams
Procedure, shortened: as §2

[7] = system: IPOHE (Morningglory, Ivyleaf); assay: Preemergence herbicidal evaluation; type: in vivo, Ipomoea hederacea; settings: rated 4-5 weeks after treatment
Procedure, shortened: as §3

[8] = system: TRZAWR (Wheat, Winter, cv Riband); assay: Postemergence herbicidal evaluation; type: in vivo, Triticum aestivum
Procedure, shortened: as §2

AMBEL (Ragweed, Common) [9] = assay: Preemergence herbicidal evaluation; type: in vivo, Ambrosia artemisifolia; settings: rated 4-5 weeks after treatment
Procedure, shortened: as §3

ORYSAT (Rice, Tebonnet) = assay: Preemergence herbicidal evaluation; type: in vivo, Oryza sativa, (L.) Tebonnet; settings: rated 4-5 weeks after treatment
Procedure, shortened: as §3

[10] = system: GLXMAW (Soybean, Williams); assay: Preemergence herbicidal evaluation; type: in vivo, Glycine max, (L.) Merr. cv Williams; settings: rated 4-5 weeks after treatment
Procedure, shortened: as §3

CASOB (Sicklepod) [11] = assay: Postemergence herbicidal evaluation; type: in vivo, Cassia obtusifolia
Procedure, shortened: as §2

ABUTH (Velvetleaf) = assay: Preemergence herbicidal evaluation; type: in vivo, Abutilon theophrasti; settings: rated 4-5 weeks after treatment
Procedure, shortened: as §3

ECHCG (Barnyardgrass) = assay: Postemergence herbicidal evaluation; type: in vivo, Echinochloa crus-galli
Procedure, shortened: as §2

AMBEL (Ragweed, Common) [12] = assay: Postemergence herbicidal evaluation; type: in vivo, Ambrosia artemisifolia
Procedure, shortened: as §2

C#CCOC(=O)CC1SC(=Nc2cc(-n3c(=O)cc(C(F)(F)F)n(C)c3=O)c(F)cc2Cl)N(CC(=O)OCC)C1=O (stereo not drawn) [Compound 59, 2-{{2-Chloro-5-[3,6-dihydro-3-methyl-2,6-dioxo-4-(trifluoromethyl)-1(2H)-pyrimidinyl]-4-fluorophenyl}imino}-4-oxo-3,5-thiazolidinediacetic acid, 3-ethyl (2-propynyl) ester]
SAGPY herbicidal effect rating ([1]; 0.0625 kg/ha): 0.0 | SAGPY herbicidal effect rating ([1]; 0.1250 kg/ha): 0.0 | SAGPY herbicidal effect rating ([1]; 0.2500 kg/ha): 3.0 | Postemergence herbicidal rating CHEAL ([2]; Rate 0.0158 kg/ha): 9.0 | Postemergence herbicidal rating CHEAL ([2]; Rate 0.0315 kg/ha): 9.0 | Postemergence herbicidal rating CHEAL ([2]; Rate 0.0630 kg/ha): 9.0 | Preemergence herbicidal rating CHEAL ([3]; rate 0.0156 kg/ha): 9.0 | Preemergence herbicidal rating CHEAL ([3]; rate 0.0313 kg/ha): 9.0 | Preemergence herbicidal rating CHEAL ([3]; rate 0.0625 kg/ha): 9.0 | Preemergence herbicidal rating CHEAL ([3]; rate 0.1250 kg/ha): 9.0 | Preemergence herbicidal rating CHEAL ([3]; rate 0.2500 kg/ha): 9.0 | Preemergence herbicidal rating CHEAL ([3]; rate 0.5000 kg/ha): 9.0 | Preemergence herbicidal rating CASOB (CASOB (Sicklepod) [4]; rate 0.0156 kg/ha): 0.0 | Preemergence herbicidal rating CASOB (CASOB (Sicklepod) [4]; rate 0.0313 kg/ha): 0.0 | Preemergence herbicidal rating CASOB (CASOB (Sicklepod) [4]; rate 0.0625 kg/ha): 2.0 | Preemergence herbicidal rating CASOB (CASOB (Sicklepod) [4]; rate 0.1250 kg/ha): 7.0 | Preemergence herbicidal rating CASOB (CASOB (Sicklepod) [4]; rate 0.2500 kg/ha): 7.5 | Preemergence herbicidal rating CASOB (CASOB (Sicklepod) [4]; rate 0.5000 kg/ha): 9.0 | Postemergence herbicidal rating IPOHE ([5]; Rate 0.0158 kg/ha): 9.0 | Postemergence herbicidal rating IPOHE ([5]; Rate 0.0315 kg/ha): 9.0 | Postemergence herbicidal rating IPOHE ([5]; Rate 0.0630 kg/ha): 9.0 | MOOVA herbicidal effect rating (MOOVA (Monochoria); 0.0625 kg/ha): 0.0 | MOOVA herbicidal effect rating (MOOVA (Monochoria); 0.1250 kg/ha): 0.0 | MOOVA herbicidal effect rating (MOOVA (Monochoria); 0.2500 kg/ha): 9.0 | Postemergence herbicidal rating GLXMAW ([6]; Rate 0.0158 kg/ha): 8.0 | Postemergence herbicidal rating GLXMAW ([6]; Rate 0.0315 kg/ha): 9.0 | Postemergence herbicidal rating GLXMAW ([6]; Rate 0.0630 kg/ha): 9.0 | Preemergence herbicidal rating IPOHE ([7]; rate 0.0156 kg/ha): 1.0 | Preemergence herbicidal rating IPOHE ([7]; rate 0.0313 kg/ha): 4.0 | Preemergence herbicidal rating IPOHE ([7]; rate 0.0625 kg/ha): 8.5 | Preemergence herbicidal rating IPOHE ([7]; rate 0.1250 kg/ha): 9.0 | Preemergence herbicidal rating IPOHE ([7]; rate 0.2500 kg/ha): 9.0 | Preemergence herbicidal rating IPOHE ([7]; rate 0.5000 kg/ha): 9.0 | Postemergence herbicidal rating TRZAWR ([8]; Rate 0.0158 kg/ha): 8.0 | Postemergence herbicidal rating TRZAWR ([8]; Rate 0.0315 kg/ha): 8.0 | Postemergence herbicidal rating TRZAWR ([8]; Rate 0.0630 kg/ha): 9.0 | Preemergence herbicidal rating AMBEL (AMBEL (Ragweed, Common) [9]; rate 0.0156 kg/ha): 2.0 | Preemergence herbicidal rating AMBEL (AMBEL (Ragweed, Common) [9]; rate 0.0313 kg/ha): 3.5 | Preemergence herbicidal rating AMBEL (AMBEL (Ragweed, Common) [9]; rate 0.0625 kg/ha): 6.5 | Preemergence herbicidal rating AMBEL (AMBEL (Ragweed, Common) [9]; rate 0.1250 kg/ha): 9.0 | Preemergence herbicidal rating AMBEL (AMBEL (Ragweed, Common) [9]; rate 0.2500 kg/ha): 9.0 | Preemergence herbicidal rating AMBEL (AMBEL (Ragweed, Common) [9]; rate 0.5000 kg/ha): 9.0 | Preemergence herbicidal rating ORYSAT (ORYSAT (Rice, Tebonnet); rate 0.0156 kg/ha): 0.0 | Preemergence herbicidal rating ORYSAT (ORYSAT (Rice, Tebonnet); rate 0.0313 kg/ha): 0.0 | Preemergence herbicidal rating ORYSAT (ORYSAT (Rice, Tebonnet); rate 0.0625 kg/ha): 0.5 | Preemergence herbicidal rating ORYSAT (ORYSAT (Rice, Tebonnet); rate 0.1250 kg/ha): 2.5 | Preemergence herbicidal rating ORYSAT (ORYSAT (Rice, Tebonnet); rate 0.2500 kg/ha): 3.5 | Preemergence herbicidal rating ORYSAT (ORYSAT (Rice, Tebonnet); rate 0.5000 kg/ha): 7.0 | Preemergence herbicidal rating GLXMAW ([10]; rate 0.0156 kg/ha): 1.0 | Preemergence herbicidal rating GLXMAW ([10]; rate 0.0313 kg/ha): 0.5 | Preemergence herbicidal rating GLXMAW ([10]; rate 0.0625 kg/ha): 1.0 | Preemergence herbicidal rating GLXMAW ([10]; rate 0.1250 kg/ha): 4.0 | Preemergence herbicidal rating GLXMAW ([10]; rate 0.2500 kg/ha): 7.0 | Preemergence herbicidal rating GLXMAW ([10]; rate 0.5000 kg/ha): 9.0 | Postemergence herbicidal rating CASOB (CASOB (Sicklepod) [11]; Rate 0.0158 kg/ha): 3.0 | Postemergence herbicidal rating CASOB (CASOB (Sicklepod) [11]; Rate 0.0315 kg/ha): 9.0 | Postemergence herbicidal rating CASOB (CASOB (Sicklepod) [11]; Rate 0.0630 kg/ha): 9.0 | Preemergence herbicidal rating ABUTH (ABUTH (Velvetleaf); rate 0.0156 kg/ha): 2.0 | Preemergence herbicidal rating ABUTH (ABUTH (Velvetleaf); rate 0.0313 kg/ha): 6.0 | Preemergence herbicidal rating ABUTH (ABUTH (Velvetleaf); rate 0.0625 kg/ha): 8.5 | Preemergence herbicidal rating ABUTH (ABUTH (Velvetleaf); rate 0.1250 kg/ha): 9.0 | Preemergence herbicidal rating ABUTH (ABUTH (Velvetleaf); rate 0.2500 kg/ha): 9.0 | Preemergence herbicidal rating ABUTH (ABUTH (Velvetleaf); rate 0.5000 kg/ha): 9.0 | Postemergence herbicidal rating ECHCG (ECHCG (Barnyardgrass); Rate 0.0158 kg/ha): 9.0 | Postemergence herbicidal rating ECHCG (ECHCG (Barnyardgrass); Rate 0.0315 kg/ha): 9.0 | Postemergence herbicidal rating ECHCG (ECHCG (Barnyardgrass); Rate 0.0630 kg/ha): 9.0 | Postemergence herbicidal rating AMBEL (AMBEL (Ragweed, Common) [12]; Rate 0.0158 kg/ha): 9.0 | Postemergence herbicidal rating AMBEL (AMBEL (Ragweed, Common) [12]; Rate 0.0315 kg/ha): 9.0 | Postemergence herbicidal rating AMBEL (AMBEL (Ragweed, Common) [12]; Rate 0.0630 kg/ha): 9.0
